Measured values reported in ChEMBL document CHEMBL1137423, “Nanomolar inhibition of the enterobactin biosynthesis enzyme, EntE: synthesis, substituent effects, and additivity” (Bioorg Med Chem Lett, 2006).

How the values were obtained:
[1] = target: T1, Enterobactin synthase component E (Escherichia coli K-12) (UniProt P10378); test: Inhibition of EntE at 0.0006 M
T1 sequence (whole entry): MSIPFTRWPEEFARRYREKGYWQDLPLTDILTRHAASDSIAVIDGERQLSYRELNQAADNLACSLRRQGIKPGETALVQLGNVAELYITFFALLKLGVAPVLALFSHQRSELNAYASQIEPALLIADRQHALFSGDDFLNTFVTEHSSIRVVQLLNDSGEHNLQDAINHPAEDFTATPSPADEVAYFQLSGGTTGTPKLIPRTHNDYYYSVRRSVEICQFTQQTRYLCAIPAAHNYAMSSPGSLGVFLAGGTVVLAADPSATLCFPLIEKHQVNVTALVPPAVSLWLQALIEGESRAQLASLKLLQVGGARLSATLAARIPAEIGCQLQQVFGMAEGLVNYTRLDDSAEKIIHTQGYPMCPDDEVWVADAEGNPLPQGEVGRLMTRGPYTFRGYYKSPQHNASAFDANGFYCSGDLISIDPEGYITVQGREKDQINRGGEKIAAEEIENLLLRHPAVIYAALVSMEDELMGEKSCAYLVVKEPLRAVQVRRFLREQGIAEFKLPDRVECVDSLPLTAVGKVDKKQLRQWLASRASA

[2] = target: T2, Enterobactin synthase component E (Escherichia coli K-12, UniProt P10378); test: Binding affinity to EntE; settings: read-out: Ki app
T2 sequence (P10378 whole entry): T1 sequence (whole entry)

[3] = target: T2, Enterobactin synthase component E; test: Binding affinity to EntE corrected to substrate competition

| SMILES | inhibition [1] [%] | Ki [2] [µM] | Ki [3] [µM] |
| --- | --- | --- | --- |
| CC(=O)NOP(=O)(O)OC[C@H]1O[C@@H](n2cnc3cncnc32)[C@H](O)[C@@H]1O | < 10 | ≥ 1000 |  |
| O=C(NOP(=O)(O)OC[C@H]1O[C@@H](n2cnc3cncnc32)[C@H](O)[C@@H]1O)c1ccccc1O |  | 0.037 |  |
| O=C(NOP(=O)(O)OC[C@H]1O[C@@H](n2cnc3cncnc32)[C@H](O)[C@@H]1O)c1ccccc1 |  | 13 |  |
| O=C(NOP(=O)(O)OC[C@H]1O[C@@H](n2cnc3cncnc32)[C@H](O)[C@@H]1O)c1cccc(O)c1O |  | 0.009 | 0.0045 |
